1 compound from patent US20070140979A1, “Method for accelerating the rate of mucociliary clearance” (BAYER AKTIENGESELLSCHAFT, priority 1998, published 2007) can be followed below.

This experiment concerns the target Bovine chymotrypsin (Bos taurus, UniProt P00766). The experiment can be described thus: Inhibition of chymotrypsin, Ki. The experiment is classed as biochemical. Particulars: Chymotrypsin (5 nM).

Structures are written as SMILES.

Consider `CC[C@H](C)[C@H](N)C(=O)N[C@@H](Cc1c[nH]cn1)C(=O)N[C@@H](CC(=O)O)C(=O)N[C@@H](Cc1ccccc1)C(=O)N[C@H]1CSSC[C@@H](C(=O)N[C@@H](C)C(=O)N[C@H](C(=O)N[C@H](C(=O)O)C(C)C)[C@@H](C)O)NC(=O)[C@H](CCCCN)NC(=O)[C@H](CCCCN)NC(=O)[C@H](CC(C)C)NC(=O)[C@@H]2CSSC[C@@H]3NC(=O)[C@H](CO)NC(=O)CNC(=O)[C@H](CC(=O)O)NC(=O)[C@H]([C@@H](C)O)NC(=O)[C@H](C(C)C)NC(=O)[C@H](CC(N)=O)NC(=O)[C@H](Cc4ccc(O)cc4)NC(=O)[C@H](Cc4c[nH]c5ccccc45)NC(=O)[C@H](Cc4c[nH]c5ccccc45)NC(=O)[C@H](CCCNC(=N)N)NC(=O)[C@@H]4CCCN4C(=O)[C@H](CCSC)NC(=O)[C@H](CO)NC(=O)[C@H](C)NC(=O)[C@H](CCCNC(=N)N)NC(=O)[C@H](CSSC[C@H](NC(=O)CNC(=O)CNC(=O)[C@H](Cc4ccc(O)cc4)NC(=O)[C@H](C(C)C)NC(=O)[C@H](Cc4ccccc4)NC(=O)[C@H](CC(C)C)NC(=O)[C@H](CCC(N)=O)NC3=O)C(=O)N[C@@H](CC(=O)O)C(=O)NCC(=O)N[C@@H](CC(N)=O)C(=O)N[C@@H](CO)C(=O)N[C@@H](CC(N)=O)C(=O)N[C@@H](CC(N)=O)C(=O)N[C@@H](Cc3ccc(O)cc3)C(=O)N[C@@H](CC(C)C)C(=O)N[C@@H]([C@@H](C)O)C(=O)N[C@@H](CCCCN)C(=O)N[C@@H](CCC(=O)O)C(=O)N[C@@H](CCC(=O)O)C(=O)N2)NC(=O)[C@H](CCCNC(=N)N)NC(=O)CNC(=O)[C@H](C(C)C)NC(=O)[C@H](C(C)C)NC(=O)[C@H](CCCCN)NC(=O)[C@H](CO)NC(=O)[C@H](C(C)C)NC(=O)[C@H](CC(C)C)NC1=O` [bikunin (7-64)], for which the Ki came out at 6 nM.

As usually defined, the Ki is a dissociation constant, usually derived from enzyme kinetics or from competition with a known ligand. Low values mean higher affinity, high ones lower affinity.
